Reference: patent US12458643B2, “Antidepressant/anxiolytic drug in which PAC1 receptor antagonist is used” (KAGOSHIMA UNIVERSITY, priority 2020, dated 2025)

Tests used:
[1] = tested on: chronic social defeat stress mice; assay: Chronic social defeat stress, social preference or avoidance test (SPAT); format: in vivo, mouse; conditions: for sustained effect on social behavioral abnormality (social interaction ratio) / effect on social behavioral abnormality (social interaction ratio): Example 18; for sustained effect on social behavioral abnormality (social interaction ratio): 7, 14, 28 days after single i.p. dose (PA-915 30 mg/kg, ketamine 20 mg/kg), fluoxetine 20 mg/kg i.p. 14-day consecutive administration; for effect on social behavioral abnormality (social interaction ratio): single i.p. dose (PA-915 30 mg/kg, ketamine 20 mg/kg, fluoxetine 20 mg/kg), 60 minutes later (Day 12); for effect on chronic social defeat stress-induced social behavioral abnormality (SPAT): 30 mg/kg i.p. once daily for 7 consecutive days, SPAT 30 min after final administration (Day 18)
Text: When male C57BL/6N mice (8 to 12 weeks old) are allowed to coexist with ICR mice having a large physical size, the male C57BL/6N mice run about in the beginning in order to avoid attack by the ICR mice, but eventually make a posture to immediately raise their forelegs and accept defeats (obedience) by repeated load for 5 days to 10 days (chronic social defeat stress (SDS) load).
The social preference or avoidance test (SPAT) is a test that has received attention in recent years as a highly extrapolatable antidepressant drug screening system. SPAT evaluates the degree of interest in others (sociality). A box (which has a wired contact surface) is disposed in an open field. A time of contact with a target (time spent in an interaction zone) and a time spent in an avoidance zone are measured without the target (ICR mice) placed in the box in the first run and with the target (ICR mice) placed in the box in the second run. Time spent in the second run/Time spent in the first run is calculated (social interaction ratio). The social interaction ratio is decreased in chronic social defeat stress mice. Stress susceptibility differs among individuals, and susceptible individuals (social interaction ratio <1) and resilient individuals (social interaction ratio 1) are found.
(§1) Chronic social defeat stress was applied at 10 min/day for 10 days (Days 1 to 10) to male C57BL/6N mice (8 to 12 weeks old) each reared in isolation for 10 days or longer. On Day 11, the social preference or avoidance test (SPAT) was conducted, and susceptible mice were selected. A vehicle (10% DMSO solution; dissolved in saline; n=12) or PA-8 (30 mg/kg; n=9) was intraperitoneally administered once daily (0.1 mL/10 g) for 7 consecutive days from day 12. SPAT was conducted for 150 seconds 30 minutes after the final administration on the 7th day (Day 18). Mice reared for 10 days in a home cage without chronic social defeat stress load were used as a control (n=12). The results are shown in FIG. 15 (A: social interaction ratio, B: time spent in the interaction zone, C: time spent in the avoidance zone). The data was indicated by mean±standard error. *P<0.05 (One-way ANOVA followed by Tukey-Kramer test).
as §1, with “or PA-9” for “or PA-8”, “FIG. 17” for “FIG. 15”, “zone). […]” for “zone).”
Chronic social defeat stress was applied at 10 min/day for 10 days (Days 1 to 10) to male C57BL/6N mice (8 to 12 weeks old) each reared in isolation for 10 days or longer. On Day 11, the social preference or avoidance test (SPAT) was conducted, and susceptible mice were selected. On the next day (Day 12), a vehicle (10% DMSO solution; dissolved in saline; n=17) or PA-915 (30 mg/kg; n=17) was intraperitoneally administered (0.1 mL/10 g) to the mice. SPAT was conducted for 150 seconds 60 minutes later. Mice reared for 10 days in a home cage without chronic social defeat stress load were used as a control (n=22). The results are shown in FIG. 19 (A: social interaction ratio, B: time spent in the interaction zone, C: time spent in the avoidance zone). […] The data was indicated by mean±standard error. **P<0.01; *P<0.05 (One-way ANOVA followed by Tukey-Kramer test). […]

[2] = tested on: normal mice; assay: Light-dark test in normal mice; format: in vivo, mouse; conditions: normal male C57BL/6J mice, 30 mg/kg i.p., 60 min after administration, 10 min test
Procedure: The effects of PA-8 and PA-81004 on normal mice were evaluated by a light-dark test (test to measure spontaneous locomotion by exploiting the properties of mice to avoid light environments, and placing the mice in a light box and a dark box joined together (each 20 cm×20 cm, height: 30 cm); in this test, anxiety-like behavior is evaluated by measuring times spent in the light box and the dark box and the number of transitions between the light box and the dark box).
(§2) Male C57BL/6J mice (8 to 12 weeks old) were acclimatized to a laboratory for 60 minutes. Then, a vehicle (10% DMSO solution; dissolved in saline; n=13), PA-8 (30 mg/kg; n=12) or PA-81004 (30 mg/kg; n=12) was intraperitoneally administered thereto (0.1 mL/10 g). After a lapse of 60 minutes after administration, the test was conducted for 10 minutes. The results are shown in FIG. 2 (A: time spent in the light box, B: the number of transitions between the light and dark boxes; light box illuminance: 330 lx).
The effects of PA-9 and PA-915 on normal mice were evaluated by the light-dark test.
as §2, with “laboratory (illuminance: 330 lx)” for “laboratory”, “saline; n=12), PA-9” for “saline; n=13), PA-8”, “mg/kg; n=10)” for “mg/kg; n=12)”, “or PA-915” for “or PA-81004”, “FIG. 6” for “FIG. 2”

Row | Structure (SMILES) | sustained effect on social behavioral abnormality (social interaction ratio) [1] | effect on social behavioral abnormality (social interaction ratio) [1] | pharmacological action in light-dark test (time in light box, transitions) [2] | effect on chronic social defeat stress-induced social behavioral abnormality (SPAT) [1]
1 | CNC1(c2ccccc2Cl)CCCCC1=O (stereo not drawn) [ketamine] | maintained its effectiveness 7, 14, and 28 days later | improved social behavioral abnormality |  | 
2 | CNCCC(Oc1ccc(C(F)(F)F)cc1)c1ccccc1 (stereo not drawn) [fluoxetine] | neither the single-dose administration nor 14-day consecutive administration of fluoxetine improved social behavioral abnormality | neither the single-dose administration nor 14-day consecutive administration of fluoxetine improved social behavioral abnormality |  | 
3 | C=CCOc1ccc(C2CC(=O)Nc3nc(N)[nH]c(=O)c32)cc1OC (stereo not drawn) [PA-8] |  |  | no pharmacological action | improving effect
4 | O=C(NCCc1c[nH]cn1)C1CC(=O)N(c2n[nH]c3ccccc23)C1 (stereo not drawn) [PA-9] |  |  | no pharmacological action | tended to improve social behavioral abnormality
5 | Nc1nc2c(c(=O)[nH]1)C(c1cccc(OC(F)(F)F)c1)CC(=O)N2 (stereo not drawn) [PA-81004, 2-Amino-5-(3-trifluoromethoxyphenyl)-5,8-dihydro-3H,6H-pyrido[2,3-d]pyrimidine-4,7-dione] |  |  | no pharmacological action | 
